The supplement of paper PMC9780213

Assays:
Conditions in all cases: treatment time: 24 h
U2OS = assay: cell count relative to DMSO control (panel A, nuclei/RNA/PMG/mitochondria stain) (fraction of control); higher = more cells (less toxicity)
Description: (§1)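 U2OS-derived cells in 384-well plates were treated for 24 h with a 7-point 2-fold dilution series (top dose 20 µM for most compounds; final max DMSO 1%), then fixed, stained in four marker panels and imaged on a Cellomics ArrayScan. Cell count per treatment (three replicate plates merged) is given as a fraction of DMSO control. Panel A used parental U2OS, panel B U2OS-mOrange2-Peroxisome, panel C1 U2OS-LMNB1-TUBA1B-ACTB (DRAQ5 nuclei).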

U2OS-LMNB1-TUBA1B-ACTB = assay: cell count relative to DMSO control (panel C1, DRAQ5/ER stain) (fraction of control); higher = more cells (less toxicity)
Description: as §1

U2OS-mOrange2-Peroxisome = assay: cell count relative to DMSO control (panel B, lysosome/peroxisome/lipid stain) (fraction of control); higher = more cells (less toxicity)
Description: as §1

SMILES | cell count (U2OS; 0.3125 µM) | cell count (U2OS; 0.625 µM) | cell count (U2OS; 1.25 µM) | cell count (U2OS; 2.5 µM) | cell count (U2OS; 5 µM) | cell count (U2OS; 10 µM) | cell count (U2OS; 20 µM) | cell count (U2OS-LMNB1-TUBA1B-ACTB; 0.3125 µM) | cell count (U2OS-LMNB1-TUBA1B-ACTB; 0.625 µM) | cell count (U2OS-LMNB1-TUBA1B-ACTB; 1.25 µM) | cell count (U2OS-LMNB1-TUBA1B-ACTB; 2.5 µM) | cell count (U2OS-LMNB1-TUBA1B-ACTB; 5 µM) | cell count (U2OS-LMNB1-TUBA1B-ACTB; 10 µM) | cell count (U2OS-LMNB1-TUBA1B-ACTB; 20 µM) | cell count (U2OS-mOrange2-Peroxisome; 0.3125 µM) | cell count (U2OS-mOrange2-Peroxisome; 0.625 µM) | cell count (U2OS-mOrange2-Peroxisome; 1.25 µM) | cell count (U2OS-mOrange2-Peroxisome; 2.5 µM) | cell count (U2OS-mOrange2-Peroxisome; 5 µM) | cell count (U2OS-mOrange2-Peroxisome; 10 µM) | cell count (U2OS-mOrange2-Peroxisome; 20 µM) | cell count (U2OS; 0.07812 µM) | cell count (U2OS; 0.15625 µM) | cell count (U2OS-LMNB1-TUBA1B-ACTB; 0.07812 µM) | cell count (U2OS-LMNB1-TUBA1B-ACTB; 0.15625 µM) | cell count (U2OS-mOrange2-Peroxisome; 0.07812 µM) | cell count (U2OS-mOrange2-Peroxisome; 0.15625 µM)
CCCC[C@@H](C=O)NC(=O)[C@H](CC(C)C)NC(=O)[C@H](CC(C)C)NC(C)=O [MG-101] | 0.986 | 0.975 | 0.773 | 0.429 | 0.198 | 0.14 | 0.0899 | 1.15 | 1.07 | 1.08 | 0.727 | 0.443 | 0.173 | 0.0712 | 0.692 | 0.642 | 0.697 | 0.608 | 0.346 | 0.242 | 0.16 |  |  |  |  |  | 
Nc1c2ccccc2nc2ccccc12 [9-aminoacridine] | 1.08 | 1.12 | 1 | 0.751 | 0.383 | 0.226 | 0.254 | 1.11 | 1.05 | 1.12 | 0.826 | 0.239 | 0.0589 | 0.0515 | 1.12 | 0.733 | 0.6 | 0.346 | 0.104 | 0.0699 | 0.0813 |  |  |  |  |  | 
COC(=O)Nc1nc2ccc(C(=O)c3cccs3)cc2[nH]1 [nocodazole] | 1.06 | 0.962 | 1.03 | 0.792 | 0.692 | 0.317 | 0.196 | 1.12 | 0.993 | 1.01 | 0.999 | 0.737 | 0.414 | 0.369 | 0.837 | 0.656 | 0.775 | 0.628 | 0.411 | 0.425 | 0.381 |  |  |  |  |  | 
CC[C@@]1([C@@H]2O[C@@H]([C@H]3O[C@@](O)(CO)[C@H](C)C[C@@H]3C)C[C@@H]2C)CC[C@H]([C@]2(C)CC[C@]3(C[C@H](O)[C@@H](C)[C@@H]([C@@H](C)[C@@H](OC)[C@H](C)C(=O)O)O3)O2)O1 [monensin] | 0.746 | 0.606 | 0.504 | 0.422 | 0.375 | 0.339 | 0.332 | 0.932 | 0.699 | 0.642 | 0.412 | 0.421 | 0.406 | 0.418 | 0.691 | 0.713 | 0.78 | 0.617 | 0.617 | 0.641 | 0.633 |  |  |  |  |  | 
CNCCCN1c2ccccc2CCc2ccccc21 [desipramine] | 0.822 | 0.55 | 0.489 | 0.481 | 0.379 | 0.243 | 0.189 | 0.972 | 0.817 | 0.772 | 0.652 | 0.595 | 0.32 | 0.333 | 0.62 | 0.64 | 0.617 | 0.571 | 0.15 | 0.115 | 0.0511 |  |  |  |  |  | 
O=C(O)CCCCC(CCSCc1ccccc1)SCc1ccccc1 (stereo not drawn) [CPI-613] | 1.01 | 0.993 | 0.975 | 1.04 | 1.14 | 1.11 | 1.05 | 1.36 | 1.4 | 1.03 | 1.06 | 1.15 | 1.08 | 1.14 | 0.907 | 1.1 | 0.897 | 1.1 | 0.851 | 0.902 | 0.849 |  |  |  |  |  | 
N#CC(C#N)=NNc1ccc(OC(F)(F)F)cc1 [FCCP] | 0.961 | 0.945 | 0.883 | 0.867 | 0.897 | 0.622 | 0.704 | 1.11 | 1.13 | 1.01 | 1.05 | 0.894 | 0.666 | 0.651 | 0.804 | 0.769 | 0.715 | 0.625 | 0.802 | 0.659 | 0.618 |  |  |  |  |  | 
C[C@H]1O[C@@H](O[C@H]2[C@@H](O)C[C@H](O[C@H]3[C@@H](O)C[C@H](O[C@H]4CC[C@@]5(C)[C@H](CC[C@@H]6[C@@H]5CC[C@]5(C)[C@@H](C7=CC(=O)OC7)CC[C@]65O)C4)O[C@@H]3C)O[C@@H]2C)C[C@H](O)[C@@H]1O [digitoxin] | 1.04 | 1.11 | 1.13 | 1.09 | 1.11 |  |  | 1.03 | 1.05 | 1.02 | 1.11 | 1.12 |  |  | 0.888 | 1.04 | 1.01 | 1.09 | 1.02 |  |  | 1.07 | 1.02 | 0.905 | 1.04 | 1.24 | 1.23
